This note sets out measurements from publication PMC5679629, “Flavin-containing monooxygenase 3 (FMO3) role in busulphan metabolic pathway” (PLoS ONE, 2017).

The structures appear in SMILES notation.

Assay in all cases: THT disappearance with recombinant cDNA-expressed enzyme microsomes
Holding throughout (format): in vitro ADME

In one data set the target is T1, CYP1A1 (Homo sapiens, UniProt P04798).
T1 construct: purchased BD Biosciences; host or cells: baculovirus infected insect cells
T1 sequence (P04798 1-512): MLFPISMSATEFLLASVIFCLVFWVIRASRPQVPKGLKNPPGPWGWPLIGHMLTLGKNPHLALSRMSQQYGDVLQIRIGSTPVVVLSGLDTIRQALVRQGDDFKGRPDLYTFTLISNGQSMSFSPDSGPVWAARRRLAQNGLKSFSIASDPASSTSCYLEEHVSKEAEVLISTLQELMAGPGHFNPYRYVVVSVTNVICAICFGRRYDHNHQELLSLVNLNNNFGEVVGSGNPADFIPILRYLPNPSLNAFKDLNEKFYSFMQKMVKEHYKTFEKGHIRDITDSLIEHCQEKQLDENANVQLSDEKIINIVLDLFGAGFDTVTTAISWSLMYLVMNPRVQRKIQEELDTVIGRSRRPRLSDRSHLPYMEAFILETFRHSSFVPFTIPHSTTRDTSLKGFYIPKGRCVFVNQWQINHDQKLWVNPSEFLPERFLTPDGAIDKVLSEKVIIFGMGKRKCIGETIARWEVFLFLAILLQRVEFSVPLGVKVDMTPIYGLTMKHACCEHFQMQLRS
The settings on record: 25μM THT, 35pmol CYP/mL. The procedure:
(§1) To identify the enzymes involved in Bu metabolism, 11 microsomal batches (BD Biosciences, Stockholm, Sweden), each containing a separate cDNA-expressed enzyme, were incubated with 25μM THT. The microsomes contained FMO3, CYP1A1, CYP1A2, CYP2B6, CYP2C8, CYP2C9, CYP2C19, CYP2D6, CYP2E1, CYP3A4 or CYP4A11. Time curves (0, 5, 15, 30 and 60min) were performed at a concentration of 0.35mg protein /mL for FMO3 and 35pmol CYP/mL for the CYP enzymes. The recombinant enzymes were produced from human cDNA expressing each of them using baculovirus expression system. Baculovirus infected insect cells were used to prepare these microsomes.
(§2) Incubations were performed in triplicate and negative controls (excluding NADPH, microsomes, THT or by terminating the incubations before the addition of NADPH) were run in parallel.
(§3) To measure THT and the secondary metabolite, sulfolane, the reactions were terminated by adding dichloromethane. Samples (180μL) were added to 10μM nicotine (20μL, Merck, Hoherbrunn, Germany), used as an internal standard, before extraction. The matrix was extracted by liquid-liquid extraction with dichloromethane (equal volumes, 200μL) after 30 sec of high speed vortexing. After extraction and centrifugation at 16000 g for 10 min, the organic phase was transferred into GC-MS tubes. […] Samples (180μL) were added to 10 μM of 3-methylsulfolane (20μL, TCI, Tokyo, Japan), used as an internal standard. The matrix was lyophilized (< 1 mbar at 40°C under N2 stream) to dryness, the residue was dissolved in 10 μL water and 200 μL of ethyl acetate was added for extraction. Samples were vortexed for 30 sec at high speed and centrifuged at 16000 g for 10 min. The organic phase was transferred to GC-MS tubes.
(§4) Concentrations of THT and its metabolites were measured using GC-MS [18] after validation for use with microsomal incubations according to the international guidelines.

The target in a further data set is T2, CYP1A2 (Homo sapiens, UniProt P05177).
T2 construct: purchased BD Biosciences; host or cells: baculovirus infected insect cells
T2 sequence (P05177 1-516): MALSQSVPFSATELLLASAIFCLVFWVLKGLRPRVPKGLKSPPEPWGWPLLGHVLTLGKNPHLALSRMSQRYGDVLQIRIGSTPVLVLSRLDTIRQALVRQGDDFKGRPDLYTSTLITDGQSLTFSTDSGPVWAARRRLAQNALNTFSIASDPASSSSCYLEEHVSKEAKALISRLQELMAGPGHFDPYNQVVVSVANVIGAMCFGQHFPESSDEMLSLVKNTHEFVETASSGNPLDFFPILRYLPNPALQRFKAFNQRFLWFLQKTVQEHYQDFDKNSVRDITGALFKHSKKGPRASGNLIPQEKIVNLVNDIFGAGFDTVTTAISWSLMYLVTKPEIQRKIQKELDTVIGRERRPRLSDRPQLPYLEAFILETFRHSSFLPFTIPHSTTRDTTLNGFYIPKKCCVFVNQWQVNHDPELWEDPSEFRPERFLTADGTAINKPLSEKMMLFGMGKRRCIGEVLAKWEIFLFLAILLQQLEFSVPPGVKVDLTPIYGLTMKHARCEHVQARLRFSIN
The settings on record: 25μM THT, 35pmol CYP/mL. The procedure: as §1, §2, §3, §4

A further data set has as its target T3, CYP2C19 (Homo sapiens, UniProt P33261).
T3 construct: purchased BD Biosciences; host or cells: baculovirus infected insect cells
The settings on record: 25μM THT, 35pmol CYP/mL. The procedure:
as §1, §2, §3, §4

A further data set addresses T4, CYP2C9 (Homo sapiens, UniProt P11712).
T4 construct: purchased BD Biosciences; host or cells: baculovirus infected insect cells
The settings on record: 25μM THT, 35pmol CYP/mL. The procedure: as §1, §2, §3, §4

For a further data set, the target named is T5, CYP2E1 (Homo sapiens, UniProt P05181).
T5 construct: purchased BD Biosciences; host or cells: baculovirus infected insect cells
T5 sequence (P05181 whole entry): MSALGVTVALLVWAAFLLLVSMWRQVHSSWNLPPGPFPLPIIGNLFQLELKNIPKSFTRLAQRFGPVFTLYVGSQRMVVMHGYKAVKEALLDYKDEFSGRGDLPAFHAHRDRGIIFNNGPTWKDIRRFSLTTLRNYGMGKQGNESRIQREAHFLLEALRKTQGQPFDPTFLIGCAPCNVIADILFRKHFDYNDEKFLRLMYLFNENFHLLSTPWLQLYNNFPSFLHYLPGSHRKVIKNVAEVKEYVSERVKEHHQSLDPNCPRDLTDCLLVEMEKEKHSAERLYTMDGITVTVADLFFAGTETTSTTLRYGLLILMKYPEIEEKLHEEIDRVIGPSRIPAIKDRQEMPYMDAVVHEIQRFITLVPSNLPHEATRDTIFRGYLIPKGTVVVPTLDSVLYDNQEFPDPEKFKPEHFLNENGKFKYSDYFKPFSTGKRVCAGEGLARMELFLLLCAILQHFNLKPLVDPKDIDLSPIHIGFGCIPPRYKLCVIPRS
As to conditions: 25μM THT, 35pmol CYP/mL. The procedure: as §1, §2, §3, §4

The next data set has as its target T6, FMO3 (Homo sapiens, UniProt P31513).
T6 construct: purchased BD Biosciences; host or cells: baculovirus infected insect cells
T6 sequence (P31513 1-532): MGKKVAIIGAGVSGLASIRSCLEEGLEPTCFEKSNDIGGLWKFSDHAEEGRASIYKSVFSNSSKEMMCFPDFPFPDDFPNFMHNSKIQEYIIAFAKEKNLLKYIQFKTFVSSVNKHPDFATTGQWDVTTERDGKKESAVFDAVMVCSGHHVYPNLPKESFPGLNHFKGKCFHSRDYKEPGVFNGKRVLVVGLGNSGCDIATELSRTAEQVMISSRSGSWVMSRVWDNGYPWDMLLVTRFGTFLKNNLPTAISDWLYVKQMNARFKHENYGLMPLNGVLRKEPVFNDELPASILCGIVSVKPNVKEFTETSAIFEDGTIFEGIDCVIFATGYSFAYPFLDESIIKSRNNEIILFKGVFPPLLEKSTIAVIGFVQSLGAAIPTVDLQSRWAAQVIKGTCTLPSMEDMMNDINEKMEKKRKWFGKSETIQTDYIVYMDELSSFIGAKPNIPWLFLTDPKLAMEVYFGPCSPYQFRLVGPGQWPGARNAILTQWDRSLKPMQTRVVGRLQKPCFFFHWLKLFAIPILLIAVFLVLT
The settings on record: 25μM THT, 0.35mg protein/mL. The procedure: as §1, §2, §3, §4

T4 sequence (P11712 whole entry): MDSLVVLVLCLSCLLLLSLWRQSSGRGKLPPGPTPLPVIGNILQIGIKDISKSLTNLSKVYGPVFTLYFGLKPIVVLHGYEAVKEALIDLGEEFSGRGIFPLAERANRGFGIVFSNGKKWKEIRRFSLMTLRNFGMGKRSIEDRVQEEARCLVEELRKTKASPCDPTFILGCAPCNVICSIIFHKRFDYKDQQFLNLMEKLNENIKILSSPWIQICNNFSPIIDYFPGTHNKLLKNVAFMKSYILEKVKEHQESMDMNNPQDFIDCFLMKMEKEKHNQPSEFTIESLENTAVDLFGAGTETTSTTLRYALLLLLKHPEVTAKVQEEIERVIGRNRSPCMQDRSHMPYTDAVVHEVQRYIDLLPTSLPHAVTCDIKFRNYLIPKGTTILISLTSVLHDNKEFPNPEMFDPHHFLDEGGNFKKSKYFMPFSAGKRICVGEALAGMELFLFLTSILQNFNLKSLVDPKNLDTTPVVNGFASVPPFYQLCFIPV
T3 sequence (P33261 whole entry): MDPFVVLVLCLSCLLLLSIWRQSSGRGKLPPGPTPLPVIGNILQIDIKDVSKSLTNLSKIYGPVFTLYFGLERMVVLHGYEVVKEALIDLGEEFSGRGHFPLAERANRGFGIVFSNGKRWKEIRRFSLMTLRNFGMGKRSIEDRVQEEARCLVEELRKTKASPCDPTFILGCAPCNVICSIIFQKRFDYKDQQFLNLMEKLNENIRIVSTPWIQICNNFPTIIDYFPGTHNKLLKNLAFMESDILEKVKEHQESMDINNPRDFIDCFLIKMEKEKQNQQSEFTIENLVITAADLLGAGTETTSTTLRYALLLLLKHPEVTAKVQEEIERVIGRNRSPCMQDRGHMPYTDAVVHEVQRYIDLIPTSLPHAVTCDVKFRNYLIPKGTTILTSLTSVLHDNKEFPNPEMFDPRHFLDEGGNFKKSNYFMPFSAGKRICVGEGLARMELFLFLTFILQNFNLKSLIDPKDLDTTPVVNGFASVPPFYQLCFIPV

Turning to `C1CCSC1` [THT, tetrahydrothiophene], the v0 at CYP1A1 worked out at 1.68 nmol/min/mL; on CYP1A2, 1.24 nmol/min/mL; at CYP2C19, 1.51 nmol/min/mL; at CYP2C9 it was 1.64 nmol/min/mL; on CYP2E1, 1.41 nmol/min/mL; at FMO3 (FMO3) it was 6.87 nmol/min/mL. Further, the v0/CYP was found to be 0.05 nmol/min/pmol CYP at CYP1A1; 0.04 nmol/min/pmol CYP on CYP1A2; 0.04 nmol/min/pmol CYP on CYP2C19; 0.05 nmol/min/pmol CYP at CYP2C9; 0.04 nmol/min/pmol CYP at CYP2E1. Moreover, the “THT disappeared (metabolized) by recombinant FMO3” value at FMO3 (within 15min) is 96%. Also, the CLint value on FMO3 (FMO3) is recorded as 709.14 μL/min/mg protein.
